Several values for one entry are separate records, joined by “and”; a condition that tells them apart may be missing. Equal values may be shown once. Inconclusive results and toxic doses are left out.
Tested on: BDF1 mice, B16 melanoma ip, median survival T/C
Assay: NCI In Vivo Anticancer Drug Screen. Data for tumor model B16 Melanoma (intraperitoneal) in B6D2F1 (BDF1) mice
Settings: endpoint: median survival time, higher = longer survival
Summary of the method: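 The ratio T/C compares compound-treated mice with vehicle-treated controls, using survival or tumor size as the endpoint in a transplantable tumor model.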

SMILES: O=C1c2ccccc2C(=O)c2c(NCCNCCO)ccc(NCCNCCO)c21
- T/C (dose: 0.25 mg/kg/injection, schedule: Q01DX009 (ip), vehicle: saline with Tween-80): 124 % of control
- T/C (dose: 0.25 mg/kg/injection, schedule: Q01DX009 (ip), vehicle: saline): 110 % of control and 111 % of control
- T/C (dose: 0.5 mg/kg/injection, schedule: Q01DX009 (ip), vehicle: saline with Tween-80): 118 % of control
- T/C (dose: 0.5 mg/kg/injection, schedule: Q01DX009 (ip), vehicle: saline): 118 % of control
- T/C (dose: 1.0 mg/kg/injection, schedule: Q01DX009 (ip), vehicle: other): 124 % of control
- T/C (dose: 1.0 mg/kg/injection, schedule: Q01DX009 (ip), vehicle: saline with Tween-80): 152 % of control
- T/C (dose: 1.0 mg/kg/injection, schedule: Q02DX009 (ip), vehicle: saline): 159 % of control
- T/C (dose: 1.0 mg/kg/injection, schedule: Q03HX016 (ip), vehicle: acid diluted with saline): 161 % of control
- T/C (dose: 1.0 mg/kg/injection, schedule: Q03HX024 (ip), vehicle: acid diluted with saline): 167 % of control
- T/C (dose: 2.0 mg/kg/injection, schedule: Q01DX009 (ip), vehicle: acid diluted with saline): 183 % of control and 208 % of control
- T/C (dose: 2.0 mg/kg/injection, schedule: Q01DX009 (ip), vehicle: saline with Tween-80): 175 % of control
- T/C (dose: 2.0 mg/kg/injection, schedule: Q01DX009 (ip), vehicle: water): 168 % of control
- T/C (dose: 2.0 mg/kg/injection, schedule: Q03HX008 (ip), vehicle: acid diluted with saline): 157 % of control
- T/C (dose: 2.0 mg/kg/injection, schedule: Q03HX016 (ip), vehicle: acid diluted with saline): 202 % of control
- T/C (dose: 2.0 mg/kg/injection, schedule: Q03HX024 (ip), vehicle: acid diluted with saline): 209 % of control
- T/C (dose: 2.0 mg/kg/injection, schedule: Q03HX024 (ip), vehicle: saline): 123 % of control
- T/C (dose: 4.0 mg/kg/injection, schedule: Q01DX005 (ip), vehicle: saline): 151 % of control
- T/C (dose: 4.0 mg/kg/injection, schedule: Q01DX005 (iv), vehicle: saline): 106 % of control
- T/C (dose: 4.0 mg/kg/injection, schedule: Q01DX009 (ip), vehicle: Klucel (hydroxypropylcellulose) (HPC)): 180 % of control
- T/C (dose: 4.0 mg/kg/injection, schedule: Q01DX009 (ip), vehicle: saline with Tween-80): 154 % of control and 188 % of control
- T/C (dose: 4.0 mg/kg/injection, schedule: Q01DX009 (ip), vehicle: water): 169 % of control and 172 % of control and 211 % of control
- T/C (dose: 4.0 mg/kg/injection, schedule: Q01DX009 (sc), vehicle: acid diluted with saline): 121 % of control
- T/C (dose: 4.0 mg/kg/injection, schedule: Q01DX009 (sc), vehicle: saline): 108 % of control
- T/C (dose: 4.0 mg/kg/injection, schedule: Q02DX009 (ip), vehicle: saline): 170 % of control and 188 % of control
- T/C (dose: 4.0 mg/kg/injection, schedule: Q03HX008 (ip), vehicle: acid diluted with saline): 206 % of control
- T/C (dose: 4.0 mg/kg/injection, schedule: Q03HX016 (ip), vehicle: acid diluted with saline): 204 % of control
- T/C (dose: 4.0 mg/kg/injection, schedule: Q03HX024 (ip), vehicle: saline): 207 % of control
- T/C (dose: 8.0 mg/kg/injection, schedule: Q01DX005 (ip), vehicle: acid diluted with saline): 192 % of control
- T/C (dose: 8.0 mg/kg/injection, schedule: Q01DX005 (iv), vehicle: saline): 106 % of control
- T/C (dose: 8.0 mg/kg/injection, schedule: Q01DX009 (ip), vehicle: Klucel (hydroxypropylcellulose) (HPC)): 158 % of control
- T/C (dose: 8.0 mg/kg/injection, schedule: Q01DX009 (ip), vehicle: other): 180 % of control
- T/C (dose: 8.0 mg/kg/injection, schedule: Q01DX009 (ip), vehicle: saline with Tween-80): 159 % of control and 190 % of control
- T/C (dose: 8.0 mg/kg/injection, schedule: Q01DX009 (oral), vehicle: acid diluted with saline): 98 % of control
- T/C (dose: 8.0 mg/kg/injection, schedule: Q01DX009 (sc), vehicle: acid diluted with saline): 111 % of control
- T/C (dose: 8.0 mg/kg/injection, schedule: Q01DX009 (sc), vehicle: saline): 123 % of control
- T/C (dose: 8.0 mg/kg/injection, schedule: Q02DX009 (ip), vehicle: saline): 191 % of control
- T/C (dose: 8.0 mg/kg/injection, schedule: Q03HX008 (ip), vehicle: acid diluted with saline): 192 % of control
- T/C (dose: 8.0 mg/kg/injection, schedule: Q04DX003 (ip), vehicle: acid diluted with saline): 195 % of control
- T/C (dose: 8.0 mg/kg/injection, schedule: Q08DX002 (ip), vehicle: acid diluted with saline): 178 % of control
- T/C (dose: 8.0 mg/kg/injection, schedule: Q08DX002 (ip), vehicle: saline): 119 % of control
- T/C (dose: 16.0 mg/kg/injection, schedule: Q01DX001 (ip), vehicle: acid diluted with saline): 156 % of control
- T/C (dose: 16.0 mg/kg/injection, schedule: Q01DX001 (oral), vehicle: saline): 108 % of control
- T/C (dose: 16.0 mg/kg/injection, schedule: Q01DX001 (sc), vehicle: acid diluted with saline): 102 % of control
- T/C (dose: 16.0 mg/kg/injection, schedule: Q01DX005 (ip), vehicle: saline): 166 % of control
- T/C (dose: 16.0 mg/kg/injection, schedule: Q01DX005 (iv), vehicle: saline): 116 % of control
- T/C (dose: 16.0 mg/kg/injection, schedule: Q01DX009 (ip), vehicle: Klucel (hydroxypropylcellulose) (HPC)): 173 % of control
- T/C (dose: 16.0 mg/kg/injection, schedule: Q01DX009 (ip), vehicle: saline with Tween-80): 186 % of control
- T/C (dose: 16.0 mg/kg/injection, schedule: Q01DX009 (oral), vehicle: acid diluted with saline): 109 % of control
- T/C (dose: 16.0 mg/kg/injection, schedule: Q01DX009 (oral), vehicle: saline): 101 % of control
- T/C (dose: 16.0 mg/kg/injection, schedule: Q01DX009 (sc), vehicle: acid diluted with saline): 156 % of control
- T/C (dose: 16.0 mg/kg/injection, schedule: Q02DX009 (ip), vehicle: saline): 180 % of control
- T/C (dose: 16.0 mg/kg/injection, schedule: Q03HX008 (ip), vehicle: acid diluted with saline): 209 % of control
- T/C (dose: 16.0 mg/kg/injection, schedule: Q03HX008 (ip), vehicle: saline): 117 % of control
- T/C (dose: 16.0 mg/kg/injection, schedule: Q03HX016 (ip), vehicle: acid diluted with saline): 98 % of control
- T/C (dose: 16.0 mg/kg/injection, schedule: Q04DX003 (ip), vehicle: acid diluted with saline): 204 % of control
- T/C (dose: 16.0 mg/kg/injection, schedule: Q08DX002 (ip), vehicle: acid diluted with saline): 173 % of control
- T/C (dose: 16.0 mg/kg/injection, schedule: Q08DX002 (ip), vehicle: saline): 112 % of control
- T/C (dose: 18.75 mg/kg/injection, schedule: Q01DX001 (ip), vehicle: Klucel (hydroxypropylcellulose) (HPC)): 111 % of control
- T/C (dose: 32.0 mg/kg/injection, schedule: Q01DX001 (ip), vehicle: acid diluted with saline): 157 % of control
- T/C (dose: 32.0 mg/kg/injection, schedule: Q01DX001 (ip), vehicle: saline): 157 % of control
- T/C (dose: 32.0 mg/kg/injection, schedule: Q01DX001 (oral), vehicle: saline): 106 % of control
- T/C (dose: 32.0 mg/kg/injection, schedule: Q01DX001 (sc), vehicle: acid diluted with saline): 100 % of control
- T/C (dose: 32.0 mg/kg/injection, schedule: Q01DX005 (ip), vehicle: saline): 181 % of control
- T/C (dose: 32.0 mg/kg/injection, schedule: Q01DX005 (iv), vehicle: saline): 119 % of control
- T/C (dose: 32.0 mg/kg/injection, schedule: Q01DX009 (oral), vehicle: acid diluted with saline): 113 % of control
- T/C (dose: 32.0 mg/kg/injection, schedule: Q01DX009 (oral), vehicle: saline): 112 % of control
- T/C (dose: 32.0 mg/kg/injection, schedule: Q01DX009 (sc), vehicle: acid diluted with saline): 114 % of control
- T/C (dose: 32.0 mg/kg/injection, schedule: Q01DX009 (sc), vehicle: saline): 100 % of control
- T/C (dose: 32.0 mg/kg/injection, schedule: Q02DX009 (ip), vehicle: saline): 196 % of control
- T/C (dose: 32.0 mg/kg/injection, schedule: Q04DX003 (ip), vehicle: saline): 153 % of control
- T/C (dose: 32.0 mg/kg/injection, schedule: Q08DX002 (ip), vehicle: acid diluted with saline): 196 % of control
- T/C (dose: 50.0 mg/kg/injection, schedule: Q01DX001 (ip), vehicle: water): 151 % of control
- T/C (dose: 64.0 mg/kg/injection, schedule: Q01DX001 (ip), vehicle: acid diluted with saline): 154 % of control
- T/C (dose: 64.0 mg/kg/injection, schedule: Q01DX001 (ip), vehicle: saline): 151 % of control
- T/C (dose: 64.0 mg/kg/injection, schedule: Q01DX001 (oral), vehicle: acid diluted with saline): 109 % of control
- T/C (dose: 64.0 mg/kg/injection, schedule: Q01DX001 (oral), vehicle: saline): 116 % of control
- T/C (dose: 64.0 mg/kg/injection, schedule: Q01DX001 (sc), vehicle: acid diluted with saline): 114 % of control
- T/C (dose: 64.0 mg/kg/injection, schedule: Q01DX009 (oral), vehicle: acid diluted with saline): 100 % of control
- T/C (dose: 64.0 mg/kg/injection, schedule: Q01DX009 (oral), vehicle: saline): 112 % of control
- T/C (dose: 64.0 mg/kg/injection, schedule: Q02DX009 (ip), vehicle: saline): 89 % of control
- T/C (dose: 64.0 mg/kg/injection, schedule: Q04DX003 (ip), vehicle: saline): 213 % of control
- T/C (dose: 64.0 mg/kg/injection, schedule: Q08DX002 (ip), vehicle: acid diluted with saline): 178 % of control
- T/C (dose: 64.0 mg/kg/injection, schedule: Q08DX002 (ip), vehicle: saline): 179 % of control
- T/C (dose: 128.0 mg/kg/injection, schedule: Q01DX001 (oral), vehicle: acid diluted with saline): 105 % of control
- T/C (dose: 128.0 mg/kg/injection, schedule: Q01DX001 (oral), vehicle: saline): 106 % of control
- T/C (dose: 128.0 mg/kg/injection, schedule: Q01DX009 (oral), vehicle: acid diluted with saline): 115 % of control
- T/C (dose: 128.0 mg/kg/injection, schedule: Q01DX009 (oral), vehicle: saline): 112 % of control
- T/C (dose: 128.0 mg/kg/injection, schedule: Q08DX002 (ip), vehicle: saline): 106 % of control
- T/C (dose: 256.0 mg/kg/injection, schedule: Q01DX001 (oral), vehicle: acid diluted with saline): 96 % of control
- T/C (dose: 256.0 mg/kg/injection, schedule: Q01DX001 (oral), vehicle: saline): 116 % of control
- T/C (dose: 512.0 mg/kg/injection, schedule: Q01DX001 (oral), vehicle: saline): 97 % of control
